Key:
[1] = target: Tyrosine-protein kinase ABL1 (Homo sapiens) (UniProt P00519); conditions: Compound concentration 1000.0 nM
[2] = target: Aurora kinase A (Homo sapiens) (UniProt O14965); conditions: Compound concentration 1000.0 nM
[3] = target: Calcium/calmodulin-dependent protein kinase type 1 (Homo sapiens) (UniProt Q14012); conditions: Compound concentration 1000.0 nM
[4] = target: Calcium/calmodulin-dependent protein kinase type 1B (Homo sapiens) (UniProt Q6P2M8); conditions: Compound concentration 1000.0 nM
[5] = target: Cyclin-dependent kinase-like 1 (Homo sapiens) (UniProt Q00532); conditions: Compound concentration 1000.0 nM
[6] = target: Dual specificity protein kinase CLK3 (Homo sapiens) (UniProt P49761); conditions: Compound concentration 1000.0 nM
[7] = target: Casein kinase I isoform gamma-2 (Homo sapiens) (UniProt P78368); conditions: Compound concentration 1000.0 nM
[8] = target: Discoidin domain-containing receptor 2 (Homo sapiens) (UniProt Q16832); conditions: Compound concentration 1000.0 nM
[9] = test system: Epidermal growth factor receptor (Homo sapiens), P00533 [G719S]; conditions: Compound concentration 1000.0 nM
[10] = test system: Epidermal growth factor receptor (Homo sapiens), P00533 [T790M]; conditions: Compound concentration 1000.0 nM
[11] = target: Ephrin type-A receptor 3 (Homo sapiens) (UniProt P29320); conditions: Compound concentration 1000.0 nM
[12] = target: Ephrin type-B receptor 2 (Homo sapiens) (UniProt P29323); conditions: Compound concentration 1000.0 nM
[13] = target: Serine/threonine-protein kinase/endoribonuclease IRE1 (Homo sapiens) (UniProt O75460); conditions: Compound concentration 1000.0 nM
[14] = test system: Receptor-type tyrosine-protein kinase FLT3 (Homo sapiens), P36888 [D835V]; conditions: Compound concentration 1000.0 nM
[15] = test system: Receptor-type tyrosine-protein kinase FLT3 (Homo sapiens), P36888 [UNDEFINED MUTATION]; conditions: Compound concentration 1000.0 nM
[16] = target: Mitogen-activated protein kinase 9 (Homo sapiens) (UniProt P45984); conditions: Compound concentration 1000.0 nM
[17] = test system: Mast/stem cell growth factor receptor Kit (Homo sapiens), P10721 [D816V]; conditions: Compound concentration 1000.0 nM
[18] = test system: Mast/stem cell growth factor receptor Kit (Homo sapiens), P10721 [V559D,T670I]; conditions: Compound concentration 1000.0 nM
[19] = target: Mitogen-activated protein kinase kinase kinase 15 (Homo sapiens) (UniProt Q6ZN16); conditions: Compound concentration 1000.0 nM
[20] = target: Dual specificity mitogen-activated protein kinase kinase 4 (Homo sapiens) (UniProt P45985); conditions: Compound concentration 1000.0 nM
[21] = test system: Hepatocyte growth factor receptor (Homo sapiens), P08581 [Y1235D]; conditions: Compound concentration 1000.0 nM
[22] = target: MAP kinase-interacting serine/threonine-protein kinase 2 (Homo sapiens) (UniProt Q9HBH9); conditions: Compound concentration 1000.0 nM
[23] = target: Myosin-IIIa (Homo sapiens) (UniProt Q8NEV4); conditions: Compound concentration 1000.0 nM
[24] = target: Myosin-IIIb (Homo sapiens) (UniProt Q8WXR4); conditions: Compound concentration 1000.0 nM
[25] = target: Serine/threonine-protein kinase OSR1 (Homo sapiens) (UniProt O95747); conditions: Compound concentration 1000.0 nM
[26] = target: Platelet-derived growth factor receptor alpha (Homo sapiens) (UniProt P16234); conditions: Compound concentration 1000.0 nM
[27] = target: Receptor-interacting serine/threonine-protein kinase 1 (Homo sapiens) (UniProt Q13546); conditions: Compound concentration 1000.0 nM
[28] = target: Rho-associated protein kinase 2 (Homo sapiens) (UniProt O75116); conditions: Compound concentration 1000.0 nM
[29] = target: Ribosomal protein S6 kinase beta-1 (Homo sapiens) (UniProt P23443); conditions: Compound concentration 1000.0 nM
[30] = target: STE20-like serine/threonine-protein kinase (Homo sapiens) (UniProt Q9H2G2); conditions: Compound concentration 1000.0 nM
[31] = target: Serine/threonine-protein kinase 33 (Homo sapiens) (UniProt Q9BYT3); conditions: Compound concentration 1000.0 nM
[32] = target: Non-receptor tyrosine-protein kinase TYK2 (Homo sapiens) (UniProt P29597); conditions: Compound concentration 1000.0 nM
[33] = target: Serine/threonine-protein kinase VRK2 (Homo sapiens) (UniProt Q86Y07); conditions: Compound concentration 1000.0 nM
[34] = target: Wee1-like protein kinase (Homo sapiens) (UniProt P30291); conditions: Compound concentration 1000.0 nM
[35] = target: 5-hydroxytryptamine receptor 2C (Homo sapiens) (UniProt P28335); conditions: Compound concentration 10.0 uM
[36] = target: T1, 5-hydroxytryptamine receptor 3A (Homo sapiens) (UniProt P46098); conditions: Compound concentration 10.0 uM
T1 sequence (whole entry): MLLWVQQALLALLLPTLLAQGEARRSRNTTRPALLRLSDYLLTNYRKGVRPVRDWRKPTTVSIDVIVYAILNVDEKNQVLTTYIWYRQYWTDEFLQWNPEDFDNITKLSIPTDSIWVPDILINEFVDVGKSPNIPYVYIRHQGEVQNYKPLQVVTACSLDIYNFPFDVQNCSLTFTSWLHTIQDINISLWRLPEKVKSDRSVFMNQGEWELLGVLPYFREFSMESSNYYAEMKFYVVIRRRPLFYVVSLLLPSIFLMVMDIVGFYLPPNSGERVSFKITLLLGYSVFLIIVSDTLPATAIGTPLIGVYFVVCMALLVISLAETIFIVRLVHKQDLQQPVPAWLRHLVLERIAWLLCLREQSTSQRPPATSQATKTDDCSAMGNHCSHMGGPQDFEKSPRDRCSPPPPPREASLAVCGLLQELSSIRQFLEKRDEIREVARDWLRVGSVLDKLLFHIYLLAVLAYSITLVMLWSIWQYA

[37] = target: 5-hydroxytryptamine receptor 7 (Homo sapiens) (UniProt P34969); conditions: Compound concentration 10.0 uM
[38] = target: Delta-type opioid receptor (Homo sapiens) (UniProt P41143); conditions: Compound concentration 10.0 uM
[39] = target: Beta-1 adrenergic receptor (Homo sapiens) (UniProt P08588); conditions: Compound concentration 10.0 uM

Serine/threonine-protein kinase/endoribonuclease IRE1 (Homo sapiens), sequence (O75460 19-977 limits assumed): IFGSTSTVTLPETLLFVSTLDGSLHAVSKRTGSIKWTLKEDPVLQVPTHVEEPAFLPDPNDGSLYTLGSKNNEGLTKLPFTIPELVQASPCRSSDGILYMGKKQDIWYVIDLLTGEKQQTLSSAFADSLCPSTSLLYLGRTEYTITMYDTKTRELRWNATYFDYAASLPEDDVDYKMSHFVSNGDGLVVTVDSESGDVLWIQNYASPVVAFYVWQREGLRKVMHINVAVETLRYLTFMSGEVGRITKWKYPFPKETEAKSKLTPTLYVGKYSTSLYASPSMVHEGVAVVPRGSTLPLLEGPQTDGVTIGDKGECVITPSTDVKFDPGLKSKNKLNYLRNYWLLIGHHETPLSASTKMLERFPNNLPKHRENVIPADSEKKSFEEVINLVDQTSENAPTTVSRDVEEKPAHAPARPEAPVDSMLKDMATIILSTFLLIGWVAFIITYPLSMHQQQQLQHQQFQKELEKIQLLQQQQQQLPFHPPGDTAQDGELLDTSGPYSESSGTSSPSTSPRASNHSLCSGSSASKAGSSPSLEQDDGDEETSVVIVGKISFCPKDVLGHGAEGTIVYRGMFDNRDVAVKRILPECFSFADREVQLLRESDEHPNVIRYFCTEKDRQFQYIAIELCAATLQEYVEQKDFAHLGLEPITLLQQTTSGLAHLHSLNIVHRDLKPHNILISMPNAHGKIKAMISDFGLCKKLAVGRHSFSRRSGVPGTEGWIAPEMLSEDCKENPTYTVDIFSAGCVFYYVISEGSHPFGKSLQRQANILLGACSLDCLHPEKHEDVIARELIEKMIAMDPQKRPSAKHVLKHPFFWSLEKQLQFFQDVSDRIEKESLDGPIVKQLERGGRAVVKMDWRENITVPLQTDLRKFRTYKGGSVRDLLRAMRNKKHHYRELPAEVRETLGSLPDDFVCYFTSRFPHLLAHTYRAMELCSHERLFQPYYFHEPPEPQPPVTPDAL
Serine/threonine-protein kinase OSR1 (Homo sapiens), sequence (O95747 2-527 limits assumed): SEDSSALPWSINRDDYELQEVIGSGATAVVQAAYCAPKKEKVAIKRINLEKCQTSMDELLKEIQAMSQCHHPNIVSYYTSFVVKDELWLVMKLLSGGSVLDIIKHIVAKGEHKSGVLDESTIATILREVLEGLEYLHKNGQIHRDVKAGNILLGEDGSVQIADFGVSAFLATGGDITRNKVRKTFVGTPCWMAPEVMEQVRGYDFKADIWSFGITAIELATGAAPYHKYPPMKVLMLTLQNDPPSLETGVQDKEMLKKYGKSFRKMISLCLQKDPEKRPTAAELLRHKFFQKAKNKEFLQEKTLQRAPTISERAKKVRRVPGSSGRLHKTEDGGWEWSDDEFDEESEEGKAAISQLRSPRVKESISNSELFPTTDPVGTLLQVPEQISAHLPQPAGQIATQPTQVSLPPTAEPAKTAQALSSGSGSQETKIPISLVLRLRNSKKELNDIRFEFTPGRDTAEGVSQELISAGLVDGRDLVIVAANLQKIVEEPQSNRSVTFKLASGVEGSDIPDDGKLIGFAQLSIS
Casein kinase I isoform gamma-2 (Homo sapiens), sequence (P78368 whole entry, looked up, the tested form may be a part, canonical isoform): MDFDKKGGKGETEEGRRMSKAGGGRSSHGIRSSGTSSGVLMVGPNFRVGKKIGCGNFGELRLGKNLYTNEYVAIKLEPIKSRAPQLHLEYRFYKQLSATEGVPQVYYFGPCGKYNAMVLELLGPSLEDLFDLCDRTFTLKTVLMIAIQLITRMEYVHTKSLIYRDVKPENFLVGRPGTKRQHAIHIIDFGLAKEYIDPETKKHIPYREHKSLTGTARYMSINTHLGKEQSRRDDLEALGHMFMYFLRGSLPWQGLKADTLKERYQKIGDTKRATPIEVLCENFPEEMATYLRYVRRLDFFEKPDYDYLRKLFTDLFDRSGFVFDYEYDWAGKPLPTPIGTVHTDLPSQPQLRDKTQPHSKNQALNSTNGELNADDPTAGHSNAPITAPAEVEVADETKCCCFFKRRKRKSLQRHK
Rho-associated protein kinase 2 (Homo sapiens), sequence (O75116 whole entry, looked up): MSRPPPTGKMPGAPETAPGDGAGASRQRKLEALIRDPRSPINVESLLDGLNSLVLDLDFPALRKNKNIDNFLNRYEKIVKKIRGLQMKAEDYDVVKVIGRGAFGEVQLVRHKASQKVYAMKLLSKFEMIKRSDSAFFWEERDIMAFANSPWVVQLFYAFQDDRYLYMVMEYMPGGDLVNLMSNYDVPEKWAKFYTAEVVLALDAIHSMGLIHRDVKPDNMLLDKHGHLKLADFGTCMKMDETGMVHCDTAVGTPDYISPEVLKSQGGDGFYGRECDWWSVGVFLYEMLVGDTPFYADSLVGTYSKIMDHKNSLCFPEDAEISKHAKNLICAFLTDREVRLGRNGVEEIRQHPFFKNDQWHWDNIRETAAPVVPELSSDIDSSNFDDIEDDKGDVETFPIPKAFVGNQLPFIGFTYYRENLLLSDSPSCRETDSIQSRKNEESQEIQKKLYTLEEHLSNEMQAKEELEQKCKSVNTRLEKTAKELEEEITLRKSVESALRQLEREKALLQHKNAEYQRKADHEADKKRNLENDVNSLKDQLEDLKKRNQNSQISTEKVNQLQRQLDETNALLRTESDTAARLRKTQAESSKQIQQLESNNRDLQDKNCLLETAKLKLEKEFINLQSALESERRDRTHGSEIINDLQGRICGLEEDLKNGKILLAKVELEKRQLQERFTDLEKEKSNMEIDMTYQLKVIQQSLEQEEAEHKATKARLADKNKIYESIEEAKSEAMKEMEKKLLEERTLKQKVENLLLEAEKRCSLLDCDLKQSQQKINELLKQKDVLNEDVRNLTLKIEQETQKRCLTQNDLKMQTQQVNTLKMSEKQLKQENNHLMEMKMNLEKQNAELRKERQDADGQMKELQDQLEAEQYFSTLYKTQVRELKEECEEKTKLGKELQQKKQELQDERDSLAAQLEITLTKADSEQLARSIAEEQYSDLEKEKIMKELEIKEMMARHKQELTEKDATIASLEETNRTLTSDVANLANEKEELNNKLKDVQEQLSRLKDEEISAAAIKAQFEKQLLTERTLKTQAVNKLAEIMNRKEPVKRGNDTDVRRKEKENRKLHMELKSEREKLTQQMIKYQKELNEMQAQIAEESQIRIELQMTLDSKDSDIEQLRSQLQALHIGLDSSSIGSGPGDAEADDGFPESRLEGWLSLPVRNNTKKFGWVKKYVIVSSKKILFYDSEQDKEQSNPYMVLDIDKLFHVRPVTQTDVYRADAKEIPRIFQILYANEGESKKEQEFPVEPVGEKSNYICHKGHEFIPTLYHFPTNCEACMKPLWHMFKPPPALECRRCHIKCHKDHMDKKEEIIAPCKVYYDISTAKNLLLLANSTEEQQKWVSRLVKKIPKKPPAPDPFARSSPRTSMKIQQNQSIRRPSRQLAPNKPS
Ribosomal protein S6 kinase beta-1 (Homo sapiens), sequence (P23443 whole entry, looked up): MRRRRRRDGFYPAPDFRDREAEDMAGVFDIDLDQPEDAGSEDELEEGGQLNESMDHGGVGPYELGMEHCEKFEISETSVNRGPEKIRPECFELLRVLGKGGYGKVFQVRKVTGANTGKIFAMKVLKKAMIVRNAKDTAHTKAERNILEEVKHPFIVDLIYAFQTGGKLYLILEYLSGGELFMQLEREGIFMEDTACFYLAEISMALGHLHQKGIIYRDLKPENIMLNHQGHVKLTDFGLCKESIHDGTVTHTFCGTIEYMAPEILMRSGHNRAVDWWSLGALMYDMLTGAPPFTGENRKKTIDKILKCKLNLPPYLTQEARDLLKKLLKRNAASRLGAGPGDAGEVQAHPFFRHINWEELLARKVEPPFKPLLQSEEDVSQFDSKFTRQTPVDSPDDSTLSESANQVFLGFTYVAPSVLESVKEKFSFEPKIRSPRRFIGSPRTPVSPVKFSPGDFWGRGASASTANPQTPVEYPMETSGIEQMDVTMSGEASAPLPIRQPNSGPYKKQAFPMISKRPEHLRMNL
MAP kinase-interacting serine/threonine-protein kinase 2 (Homo sapiens), sequence (Q9HBH9 whole entry, looked up): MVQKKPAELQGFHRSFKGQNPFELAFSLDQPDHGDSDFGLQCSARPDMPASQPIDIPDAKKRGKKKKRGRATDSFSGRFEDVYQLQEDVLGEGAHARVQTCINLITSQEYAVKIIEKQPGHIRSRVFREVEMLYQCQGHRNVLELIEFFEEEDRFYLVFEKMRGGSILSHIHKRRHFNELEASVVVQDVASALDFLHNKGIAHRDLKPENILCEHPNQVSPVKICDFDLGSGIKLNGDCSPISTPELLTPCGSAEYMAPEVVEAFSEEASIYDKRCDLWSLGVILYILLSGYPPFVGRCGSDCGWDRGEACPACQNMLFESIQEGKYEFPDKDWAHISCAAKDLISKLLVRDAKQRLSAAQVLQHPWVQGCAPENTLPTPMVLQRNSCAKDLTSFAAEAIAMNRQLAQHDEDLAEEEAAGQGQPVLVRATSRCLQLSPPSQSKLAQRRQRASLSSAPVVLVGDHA
Dual specificity protein kinase CLK3 (Homo sapiens), sequence (P49761 whole entry, looked up, canonical isoform): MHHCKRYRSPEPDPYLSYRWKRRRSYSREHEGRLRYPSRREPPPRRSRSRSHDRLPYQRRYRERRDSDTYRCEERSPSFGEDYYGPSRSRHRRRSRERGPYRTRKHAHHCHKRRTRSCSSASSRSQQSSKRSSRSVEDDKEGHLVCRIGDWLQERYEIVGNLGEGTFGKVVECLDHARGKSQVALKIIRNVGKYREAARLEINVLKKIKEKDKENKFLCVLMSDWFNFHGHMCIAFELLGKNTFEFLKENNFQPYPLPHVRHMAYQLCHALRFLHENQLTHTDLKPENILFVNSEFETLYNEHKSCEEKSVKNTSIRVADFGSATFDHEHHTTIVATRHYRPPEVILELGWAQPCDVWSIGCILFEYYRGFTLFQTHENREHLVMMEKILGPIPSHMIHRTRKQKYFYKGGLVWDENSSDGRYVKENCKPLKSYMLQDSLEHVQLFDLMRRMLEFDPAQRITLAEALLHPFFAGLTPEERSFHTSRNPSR

C[C@H](NC(=O)c1cnc2n1[C@](C)(Cc1ccc(C#N)cc1)C(=O)N2c1cc(Cl)c(F)c(Cl)c1)C(=O)NC1(c2ccccn2)CC1 [BI 1950]
inactive: residual activity [1] 100% | residual activity [2] 100% | residual activity [3] 96% | residual activity [4] 83% | residual activity [5] 73% | residual activity [6] 96% | residual activity [7] 90% | residual activity [8] 100% | residual activity [9] 100% | residual activity [10] 95% | residual activity [11] 88% | residual activity [12] 100% | residual activity [13] 96% | residual activity [14] 100% | residual activity [15] 100% | residual activity [16] 92% | residual activity [17] 100% | residual activity [18] 100% | residual activity [19] 76% | residual activity [20] 100% | residual activity [21] 100% | residual activity [22] 100% | residual activity [23] 100% | residual activity [24] 100% | residual activity [25] 94% | residual activity [26] 100% | residual activity [27] 100% | residual activity [28] 100% | residual activity [29] 100% | residual activity [30] 100% | residual activity [31] 88% | residual activity [32] 100% | residual activity [33] 100% | residual activity [34] 100% | inhibition [35] 24.3% | inhibition [36] -2.51% | inhibition [37] -4.31% | inhibition [38] -0.33% | inhibition [39] 24.1%

C[C@@]1(Cc2ccc(C#N)cc2)C(=O)N(c2cc(Cl)cc(Cl)c2)c2ncc(C(=O)NC3(c4nc(C5CCC5)no4)CC3)n21 [BI 9446]
inactive: residual activity [1] 100% | residual activity [2] 92% | residual activity [3] 93% | residual activity [4] 65% | residual activity [5] 100% | residual activity [6] 100% | residual activity [7] 91% | residual activity [8] 100% | residual activity [9] 99% | residual activity [10] 86% | residual activity [11] 83% | residual activity [12] 94% | residual activity [13] 82% | residual activity [14] 100% | residual activity [15] 100% | residual activity [16] 100% | residual activity [17] 100% | residual activity [18] 100% | residual activity [19] 81% | residual activity [20] 100% | residual activity [21] 100% | residual activity [22] 100% | residual activity [23] 100% | residual activity [24] 99% | residual activity [25] 84% | residual activity [26] 100% | residual activity [27] 100% | residual activity [28] 100% | residual activity [29] 100% | residual activity [30] 100% | residual activity [31] 100% | residual activity [32] 100% | residual activity [33] 100% | residual activity [34] 100% | inhibition [35] 32.9% | inhibition [36] 17.9% | inhibition [37] 4.18% | inhibition [38] 8.3% | inhibition [39] 29.7%
